Results published in patent US9012365B2, “Compatibility agents for herbicidal formulations comprising 2,4-(Dichlorophenoxy) acetic acid salts” (priority 2006, dated 2015).

Assays:
Format in all cases: physicochemical
[1] = System appearance and pH after adding chemicals into System A
From the text: System appearance after adding various chemicals into “System A” which was 100 g of 3% 2,4-D DMA (50%)+90% water (1000 ppm)+7% Ammonium sulfate (40%).

[2] = Appearance of 10 g solution of (2.5 wt % ai 2,4-D DMA + tested chemical) after adding 40% AMS; conditions: for 0 gram Appearance / Addition Weight of 40% AMS: System was cloud after adding / Addition Weight of 40% AMS: System was clear after adding: 2.5 wt % ai 2,4-D DMA; for Addition Weight of 40% AMS: System was cloud after adding / Addition Weight of 40% AMS: System was clear after adding: 10 g solution
Description: In this example, the appearance of a 10 g solution of (2.5 wt % ai 2,4-D DMA+tested chemical) was evaluated after adding 40% AMS

[3] = as above; conditions: summary statement of the description
[4] = Solubility of tested chemical in DI water
Description: (§1) In example 1, the electrolyte tolerance of 6 chemicals with and without the presence of 2,4-D amine was evaluated in ammonium sulfate system.

[5] = Electrolyte tolerance: 40% AMS added into 10 g 0.13% tested chemical in DI water
Description: as §1

[6] = added into 100 g System A, added wt 0.815 g Ethoquad, 0.079 g NH4OH, 0.091 g dimethylamine, 1.07 g NaOH
[7] = added wt 1.35 grams into 100 g System A
[8] = 0.13 wt % a.i. of tested chemical, 0 gram 40% AMS
[9] = 0.13 wt % a.i. of tested chemical
[10] = at 0 g AMS added, or at all additions (All)
[11] = 1.25 wt % a.i. of tested chemical
[12] = 0.05 wt % a.i. of tested chemical

Row | Molecule | 0 gram Appearance [2, 8] | Addition Weight of 40% AMS: System was cloud after adding [2, 9] [grams] | Addition Weight of 40% AMS: System was clear after adding [2, 9] | other results
1 | [Na+].[OH-] [10% NaOH, NaOH] |  |  |  | Appearance [1, 6]: clear; pH [1, 6]: 6; Appearance [1, 7]: crystals re-appeared; pH [1, 7]: 10
2 | CNC [Dimethylamine 40%, Dimethylamine] |  |  |  | Appearance [1, 6]: slightly hazy; pH [1, 6]: 7.8
3 | CC(C)O [Isopropyl alcohol] | Clear | 0.461 |  | Suitability for increasing the solubility of 2,4-D non-amine salt (in words) [3]: ineffective
4 | CN1CCCC1=O [Methyl-2-pyrrolidinone] | Clear | 0.567 | 0.36 grams | Suitability for increasing the solubility of 2,4-D non-amine salt (in words) [3]: ineffective
5 | N.O [NH4OH 28-30%, NH4OH] |  |  |  | Appearance [1, 6]: hazy; pH [1, 6]: 8
6 | CCCCC(CC)COC(=O)CC(C(=O)OCC(CC)CCCC)S(=O)(=O)[O-].[Na+] (centres unmarked) [Sodium dioctyl sulfonsuccinate] | very cloudy | 0 | very cloudy | Suitability for increasing the solubility of 2,4-D non-amine salt (in words) [3]: ineffective
7 | CCCCCCCCO [octanol] |  |  |  | Suitability for increasing the solubility of 2,4-D non-amine salt (in words) [3]: ineffective
8 | Di (propylene glycol) methyl ether | Clear | 0.829 | 0.665 grams | 
9 | Ethoxylated (20EO) sorbitol ester | Clear | 1.25 | 1.037 grams | 
10 | Iso C13 etheramine-5EO | Clear | 2.045 | 1.732 grams | 
11 | Na Cocoamphocarboxyglycinate |  |  |  | 0 gram Appearance [2, 11]: Clear; Addition Weight of 40% AMS: System was clear after adding [2, 11]: 0.25 grams; Addition Weight of 40% AMS: System was cloud after adding [2, 11]: 0.508 grams
12 | Nonylphenol-4EO | cloudy | 0 | cloudy | 
13 | Nonylphenol-6EO (5EO) | Hazy | 0 | Hazy | 
14 | Nonylphenol-9EO | Clear | 0.601 | 0.473 grams | 
15 | Nonylphenol-9EO carboxylate | Clear | 1.692 | 1.312 grams | 
16 | Nonylphenol-12EO | Clear | 0.502 | 0.415 grams | 
17 | Nonylphenol-30EO | Clear | 0.584 | 0.487 grams | 
18 | Octyliminodipropionate |  |  |  | 0 gram Appearance [2, 11]: Clear; Addition Weight of 40% AMS: System was clear after adding [2, 11]: 0.283 grams; Addition Weight of 40% AMS: System was cloud after adding [2, 11]: 0.602 grams
19 | Phenol ethoxylate | Clear | 0.577 |  | 
20 | Polyoxyethylene Sorbitol Tallate | Clear | 0.71 | 0.661 grams | 
21 | Sodium lauryl olefin sulfonate | Clear | 2.546 | 1.896 grams | 0 gram Appearance [2, 12]: Clear; Addition Weight of 40% AMS: System was clear after adding [2, 12]: 1.526 grams; Addition Weight of 40% AMS: System was cloud after adding [2, 12]: 2.121 grams
22 | Sodium xylene sulfonate | Clear | 0.524 |  | 
23 | Soya acid ethoxylate-10EO | Clear | 0.756 | 0.482 grams | 
24 | Tall oil fatty acid amidoamine-10EO | Clear | 2.243 | 1.591 grams | 
25 | Tallow acid + triethanolamine + 10EO | Clear | 3.049 | 2.087 grams | 
26 | Tallowamine-2EO | Clear | 1.513 | 1.31 grams | 
27 | Trideceth-6 | Clear | 0.717 | 0.47 grams | 
28 | Trideceth-10 | Clear | 0.685 | 0.557 grams | 
29 | Triethyl ammonium phosphate |  |  |  | 0 gram Appearance [2, 11]: Clear; Addition Weight of 40% AMS: System was clear after adding [2, 11]: 0.303 grams; Addition Weight of 40% AMS: System was cloud after adding [2, 11]: 0.535 grams
30 | ethoxylated (2EO) cocoamide oxides |  |  |  | Suitability for increasing the solubility of 2,4-D non-amine salt (in words) [3]: ineffective

Further lines, with some results ahead:

Row | 0 gram Appearance [2, 8] | Addition Weight of 40% AMS: System was cloud after adding [2, 9] [grams] | Addition Weight of 40% AMS: System was clear after adding [2, 9] | Molecule | other results
31 | Clear | 0.554 | 0.476 grams | Castor oil ethoxylate-55EO | Solubility of tested chemical in DI Water [4]: >20%; Appearance, added 40% AMS wt into 10 g 0.13% tested chemical in DI water [5, 10]: clear; Added 40% AMS wt into 10 g 0.13% tested chemical in DI water, hazy ([5]; no 2,4-D): 3.74 hazy g; Added 40% AMS wt into 10 g 0.13% tested chemical in DI water, still clear ([5]; no 2,4-D): 3.63 g; Added 40% AMS wt into 10 g (2.5% 2,4-D + 0.13% tested chemical in DI water), hazy ([2]; Table of Example 1): 0.55 g; Added 40% AMS wt into 10 g (2.5% 2,4-D + 0.13% tested chemical in DI water), still clear ([2]; Table of Example 1): 0.48 g; Appearance, added 40% AMS wt into 10 g (2.5% 2,4-D + 0.13% tested chemical in DI water) [2, 10]: clear
32 | Clear | 1.541 | 1.454 grams | Cocoamine-10EO | 
33 | Clear | 1.731 | 1.488 grams | Cocodimethylamidopropylamine | 
34 | Clear | 2.123 | 2.038 grams | Cocotrimethyl Chloride | 
35 | Clear | 0.163 |  | Ethoxylated (6EO) caprylic & capric glycerol ester | 
36 | Clear | 0.324 |  | Iso C13 + 4EO phosphate ester (acid) | 
37 | Clear | 0.459 | 0.261 grams | Oleylamphopolycarboxyglycinate | 
38 | Clear | 0.329 |  | Propyl glycosides | 
39 | very cloudy | 0 | very cloudy | Tall oil fatty acid-4EO | 
40 | Clear | 1.751 | 1.485 grams | Tallowamine-6EO | 
41 | Clear | 1.526 | 1.273 grams | Tallowamine-14EO | 
42 | Clear | 2.014 | 1.731 grams | Tallowamine-15EO methylchloride | 
43 | cloudy | 0 | cloudy | Trideceth-4 | 
44 | Clear | 0.684 | 0.458 grams | Trideceth-8 | 
45 | Clear | 0.688 | 0.581 grams | Trideceth-12 | 
46 | Clear | 2.509 | 2.102 grams | Tristyrylphenol + 15EO | 
47 | Clear | 2.235 | 1.084 grams | Tristyrylphenol + 16EO | 
